Values quoted from earlier work, collected in patent US6703036B1, “Stomach-action molluscicides” (priority 1997, dated 2004).

What was measured:
[1] = system: golden apple snail, Pomacea canaliculata; details: used on its own at 100 ppm, aqueous solution on the water surface
rat = details: oral administration

In the case of `CCCCCCCCCCCCOS(=O)(=O)[O-].[Na+]` [Sodium dodecyl sulphate], the molluscicidal activity [1] is given as “effective molluscicide”.

For Sorbitan monolaurate, the LD50 (rat) is given as 33.6 g/kg.

For Sorbitan monostearate, the LD50 (rat) is given as 31 g/kg.
